According to US20160346283A1, “Various Compounds as Autophagy Stimulants” (Velgene 3 Limited, priority 2013, published 2016):

Experiments:
[1] = system: GFP-RFP-LC3 HeLa cell line; assay: GFP-RFP-LC3 HeLa autophagy reporter cell assay (fluorescence microscopy); type: cell-based, human; conditions: for number of red foci (autolysosomes): 10.0 μM, 6 hours, compared to negative control (DMSO)
Experimental: The GFP-RFP-LC3 HeLa cell line (Settembre et al, Science, 2011) was cultured in DMEM (Dulbecco's Modified Eagle's Medium, Sigma, D7777) containing 4500 mg/l glucose, 10% heat inactivated FCS (Merck), 40 μg/ml gentamycin (Hungaropharma) and 600 μg/ml G418 (Sigma, G8168). Drug candidates […]-0696, […]-7132 and […]-1567 were obtained from the ENAMINE molecule bank. 3×10^4 cells were plated onto 13 mm diameter poly-D-lysine coated coverslips in 24-well plates (Greiner) with 24 hours before the treatment. […] As controls, 0.1 and 1% DMSO, 200 nM rapamycin (autophagy inductor) and 100 nM bafilomycin A1 (an autophagy inhibitor) were used. For fluorescence microscopy, cells were fixed in 4% paraformaldehyde (Taab) and mounted in mowiol 4.88 (Polysciences) supplemented with bis-benzimide (Sigma) for nuclei staining. 5 epifluorescent pictures were taken in each condition by a BX51 microscope (Olympus) fitted with a FluoViewII camera and the AnalysisPro software (Olympus), using a 60×/1.4 oil Plan objective and the appropriate filter sets (DAPI: BP330-385/DM400/BA420; GFP: BP460-500/DM505/BP510-560; RFP: BP480-550/DM570/BA590). […] RFP: red fluorescence protein-autolysosome (mature autophagic compartment) GFP: green fluorescence protein Atg8: Autophagy-related protein 8-the most frequently used marker for autophagy Yellow: RFP and GFP (merged)-autophagosome (the primary autophagic structure)

[2] = system: mice (pancreas, liver); assay: Autophagic activity in mouse organs by electron microscopy; type: in vivo; conditions: 50 uMol intraperitoneal, 2.5 hours
Experimental: 50 uMol of effective molecules were dissolved in 10% DMSO and were administered intraperitoneously. After 2.5 hours the animals were sacrificed and their organs removed. The organs were transferred to tissue cultivating solution.
The organs were prepared for electronmicroscopic studies by standard preparation techniques. The ultrathin slices were prepared using Reichert-Jung Ultracut-E type ultramicrotome. The slides were investigated by JEM Jeol 1011 electron microscope.

[3] = system: Drosophila melanogaster transgenic for an mCherry:Atg8 reporter (fat body); assay: mCherry:Atg8 reporter in fat body of Drosophila L3 larvae; type: in vivo; conditions: L3 larva, 1.0 uM, 2 hours
Experimental: Flies with the genotype of hsFlp:pAct<CD2<Gal4, UAS-nlsGFP, r4:mCherry:Atg8a were used. Microscopic images were taken from the fat body of wandering larvae at the L3 stage. Note that in well-fed larvae at the same stage, no autophagic activity is visible. 2 hours before the test, 90-94 hours larvae were transferred onto yeast suspension (0.5 g yeast extract 2.5 ml water, homogenization and boiling). […] Larvae were cultured in this medium for 2 hours. Preparation of fat bodies was performed in PBS solution. For covering, 8:2 ratio of glycerine:PBS was used (supplemented with 10 mM Hoechst solution).
Imaging was taken with a Zeiss AxioImager Z1 fluorescence microscope, supplemented with Apotome semiconfocal setup, 400× magnification, the same exposition time.
Examining T544-1567 (inhibitor), hsFlp; pAct<CD2<Gal4, UAS-nlsGFP, r4:mCherry:Atg8a flies were crossed with animals of yw; (EP)EDTP^EY22967 genotype (the autophagy antagonist EDTP/Jumpy is clonally overexpressed in fat body).
Cells with overactivated EDTP/Jumpy are in green due to the presence of the GFP transgene. Blue colour (DAP staining) indicates the nuclei (DNA). Red dots (mCherry:Atg8) indicate autophagy structures (autophagosomes+autolysosomes). […]

| SMILES | accumulation of autophagosomes (yellow foci), fusion with lysosomes blocked ([1]; 100 nM bafilomycin A1, 6 hours) | number of red foci (autolysosomes) [1] | autophagy activity (autolysosome accumulation) ([1]; larger dose, 50 uM) | autophagic activity (autophagosomes and autolysosomes) in liver [2] | autophagic activity (autophagosomes and autolysosomes) in pancreas [2] | red dots (mCherry:Atg8 autophagy structures) in fat body [3] |
| --- | --- | --- | --- | --- | --- | --- |
| CO/C1=C\C(C)=C\[C@@H](C)[C@@H](O)[C@@H](C)C/C(C)=C/C=C/[C@H](OC)[C@@H]([C@@H](C)[C@@H](O)[C@H](C)[C@@]2(O)C[C@@H](O)[C@H](C)[C@@H](C(C)C)O2)OC1=O [Bafilomycin A1, reference compound] | yellow foci accumulate in large quantities |  |  |  |  |  |
| O=C1C([N-]S(=O)(=O)c2ccc([N+](=O)[O-])cc2)=C([n+]2c[nH]c3ccccc32)C(=O)c2ccccc21 [T0501-7132] |  | induces the accumulation the autolysosomes | markedly elevated activity |  |  |  |
| CC(Sc1nc2ccccc2c(=O)n1C1CCCC1)C(=O)N1CCc2ccccc21 (stereo not shown) [T558-0696] |  | increases the number of red foci (autolysosomes) |  | pronounced autophagic activity | pronounced autophagic activity | increased number of red dots |
